# Laboratory results: US20210137913A1, “THERAPEUTIC AGENT FOR ASPIRATION PNEUMONIA, LUNG SUPPURATION, OR LUNG ABSCESS” (KYORIN PHARMACEUTICAL CO., LTD., priority 2017, published 2021)
# Columns and labels:
# anaerobic bacteria = details: Non Patent Literature 2; cited from earlier work
# Anaerobe [1] = assay: Microbiological efficacy according to the causative bacteria (Lung suppuration/lung abscess); assay type: in vivo
# Protocol: (§1) The investigational new drug A was administered intravenously for 7 to 14 days to 11 subjects suspected of having lung suppuration or lung abscess meeting the following criteria.
# (§2) On the first day of the start of administration, two doses of investigational new drug A (300 mg/day) were used, and on the second day of administration, one dose of investigational new drug A (150 mg/day) was used, and then the same dose (150 mg/day) was maintained. The administration of the injection was performed intravenously over about 1 hour per dose.
# (§3) Samples for microbiological evaluation were collected before starting an appropriate alternative antibacterial treatment.
# (§4) Table 4 and Table 5 show the microbiological efficacy of Test Examples 1 and 2 according to the causative bacteria.
# [2] = tested on: genus Parvimonas P. micra; assay: as above; assay type: in vivo; details: case number 2
# Protocol: as §1, §2, §3, §4
# Anaerobe [3] = assay: Microbiological efficacy according to the causative bacteria (Aspiration pneumonia); assay type: in vivo
# Protocol: (§5) The investigational new drug A was administered intravenously for 7 to 14 days to 13 subjects suspected of having aspiration pneumonia meeting the following criteria.
# as §2, with “The patient presents with symptoms and inflammation that are characteristic of aspiration pneumonia. On” for “On”
# as §3, §4
# [4] = tested on: genus Parvimonas P. micra; assay: as above; assay type: in vivo; details: case number 1
# Protocol: as §5
# as §2, with “The patient presents with symptoms and inflammation that are characteristic of aspiration pneumonia. On” for “On”
# as §3, §4
# [5] = tested on: genus Actinomyces A. odontolyticus; assay: as above; assay type: in vivo; details: case number 1
# Protocol: as §5
# as §2, with “The patient presents with symptoms and inflammation that are characteristic of aspiration pneumonia. On” for “On”
# as §3
# [6] = tested on: genus Veillonella Veillonella sp.; assay: as above; assay type: in vivo; details: case number 7
# Protocol: as §5
# as §2, with “The patient presents with symptoms and inflammation that are characteristic of aspiration pneumonia. On” for “On”
# as §3
# [7] = tested on: genus Prevotella Prevotella sp.; assay: as above; assay type: in vivo; details: case number 6
# Protocol: as §5
# as §2, with “The patient presents with symptoms and inflammation that are characteristic of aspiration pneumonia. On” for “On”
# as §3
# [8] = tested on: genus Prevotella P. intermedia; assay: as above; assay type: in vivo; details: case number 1
# Protocol: as §5
# as §2, with “The patient presents with symptoms and inflammation that are characteristic of aspiration pneumonia. On” for “On”
# as §3
# [9] = tested on: genus Bacteroides Bacteroides sp.; assay: as above; assay type: in vivo; details: case number 2
# Protocol: as §5
# as §2, with “The patient presents with symptoms and inflammation that are characteristic of aspiration pneumonia. On” for “On”
# as §3
# [10] = tested on: genus Prevotella P. buccae; assay: as above; assay type: in vivo; details: case number 1
# Protocol: as §5
# as §2, with “The patient presents with symptoms and inflammation that are characteristic of aspiration pneumonia. On” for “On”
# as §3
# [11] = tested on: genus Prevotella P. oralis; assay: Microbiological efficacy according to the causative bacteria (Lung suppuration/lung abscess); assay type: in vivo; details: case number 1
# Protocol: as §1, §2, §3
# [12] = tested on: genus Porphyromonas P. gingivalis; assay: as above; assay type: in vivo; details: case number 1
# Protocol: as §1, §2, §3
# [13] = tested on: genus Fusobacterium F. necrophorum; assay: as above; assay type: in vivo; details: case number 1
# Protocol: as §1, §2, §3
# [14] = tested on: genus Fusobacterium F. nucleatum; assay: as above; assay type: in vivo; details: case number 4
# Protocol: as §1, §2, §3
# [15] = tested on: genus Bacteroide B. fragilis; assay: as above; assay type: in vivo; details: case number 1
# Protocol: as §1, §2, §3
# [16] = tested on: genus Prevotella P. melaninogenica; assay: as above; assay type: in vivo; details: case number 1
# Protocol: as §1, §2, §3
# [17] = tested on: genus Veillonella Veillonella sp.; assay: as above; assay type: in vivo; details: case number 2
# Protocol: as §1, §2, §3
# [18] = tested on: genus Leptotrichia Leptotrichia buccalis; assay: as above; assay type: in vivo; details: case number 1
# Protocol: as §1, §2, §3
# [19] = tested on: genus Prevotella Prevotella sp.; assay: as above; assay type: in vivo; details: case number 1
# Protocol: as §1, §2, §3
# [20] = tested on: genus Prevotella P. intermedia; assay: as above; assay type: in vivo; details: case number 1
# Protocol: as §1, §2, §3
# [21] = tested on: subjects suspected of having aspiration pneumonia; assay: Test Example 1: clinical efficacy in aspiration pneumonia; assay type: in vivo, human
# Protocol: as §5
# A clear infiltrative shadow appearing acutely on chest X-rays or CT images taken within 48 hours before the start of administration at the age of 16 years or older, is observed.
# Confirmation of clear aspiration, choking or dysphagia, has a disease or history of disease with potential dysphagia.
# as §2, with “The patient presents with symptoms and inflammation that are characteristic of aspiration pneumonia. On” for “On”
# (§6) The clinical efficacy of Test Examples 1 and 2 were determined by setting the following criteria, based on the criteria for clinical efficacy of pneumonia described in Clinical evaluation method of new antibacterial drugs in respiratory infections (2nd edition), Japanese Journal of Chemotherapy. 2012; 60(1): 30-45. 9). The primary endpoint was the efficacy rate at the end of administration or discontinuation of investigational new drug A.
# (§7) The end of administration herein means the evaluation date on the day after the administration of the investigational new drug A is completed. Moreover, the time of discontinuation means the date on which the evaluation was performed within 3 days from the last administration date or the discontinuation judgment date of the investigational new drug A. Furthermore, “the end of administration or the time of discontinuation” is expressed as End of Treatment (EOT). In addition, CRP is an abbreviation for C-reactive protein, and is one of the acute phase reactants produced in a short time in response to various inflammations. It is a useful index for the observation of therapeutic effects since it increases in a few hours in bacterial infections such as pneumonia and decreases rapidly as the inflammation subsides.
# (§8) “Early therapeutic effect” was defined as a case in which significant improvement is observed 3 days after administration (regardless of whether administration was completed or continued after 4 days).
# as §3
# (§9) In addition, if the discontinuation date is the start date of administration (day 0) or the second day of administration (day 1), the determination of early drug efficacy was regarded as unnecessary. In the case of the third day of administration (day 2) or later, it was determined using the test results at the time of discontinuation.
# (§10) When the treatment was discontinued after the next day after the end of the administration, the clinical efficacy at the end of the administration was determined, and the determination of the clinical efficacy at the time of discontinuation was not required. In addition, it was judged as “Ineffective” when the treatment was discontinued or when it was changed to an alternative antibacterial treatment after the end of administration of the investigational new drug. […] When changing to an alternative antibacterial treatment, in principle, prescribed tests, examinations and judgments at the end of treatment were made before the change.
# (§11) The efficacy rate is the value obtained by the following formula.
# (§12) Efficacy rate=(number of subjects rated as “Effective”[…]number of subjects rated as “Effective” or “Ineffective”)×100(%)
# [22] = tested on: subjects suspected of having lung suppuration or lung abscess; assay: Test Example 2: clinical efficacy in lung suppuration or lung abscess; assay type: in vivo, human
# Protocol: as §1
# On chest X-rays or CT images taken within 48 hours before the start of administration at the age of 16 years or older, a massive shadow or a shadow with cavities inside (nodular shadow, mass shadow) is observed. Regardless of the presence of a niveau due to pus accumulation.
# The patient presents with symptoms and inflammation that are characteristic of lung suppuration or lung abscess.
# as §2, §6, §7, §8, §3, §9, §10, §11, §12
# [23] = lung suppuration/lung abscess, Anaerobe total, case number 16
# [24] = aspiration pneumonia, Anaerobe total, case number 19
# [25] = Test Example 1, aspiration pneumonia, 3 days after administration, number of subjects
# [26] = Test Example 1, aspiration pneumonia, EOT, number of subjects
# [27] = conclusion from Table 2 and Table 3
# [28] = Test Example 2, lung suppuration or lung abscess, 3 days after administration, number of subjects
# [29] = Test Example 2, lung suppuration or lung abscess, EOT, number of subjects
smiles,measurement,setting,value
O=C(O)c1cn(C2CC2)c2cc(N3CCNCC3)c(F)cc2c1=O [ciprofloxacin],antibacterial activity against anaerobic bacteria (in words),anaerobic bacteria,insufficient antibacterial activity
"COc1c(N2C[C@H](CNC3CC3)[C@H](F)C2)c(F)cc2c(=O)c(C(=O)O)cn(CCF)c12 [investigational new drug A, 7-[(3S,4S)-3-{(cyclopropylamino)methyl}-4-fluoropyrrolidin-1-yl]-6-fluoro-1-(2-fluoroethyl)-8-methoxy-4-oxo-1,4-dihydroquinoline-3-carboxylic acid]",antibacterial effect on the causative bacteria of lung suppuration or lung abscess (in words),Anaerobe [1]; conclusion from Table 5,high antibacterial effect
same,Result: Eradicated,Anaerobe [1]; [23],15
same,Result: Persisted,Anaerobe [1]; [23],1
same,Result: Eradicated,[2],2
same,Result: Persisted,[2],0
same,Result: Eradicated,Anaerobe [3]; [24],17
same,Result: Persisted,Anaerobe [3]; [24],2
same,antibacterial effect on the causative bacteria of aspiration pneumonia (in words),Anaerobe [3]; conclusion from Table 4,high antibacterial effect
same,Result: Eradicated,[4],1
same,Result: Persisted,[4],0
same,Result: Eradicated,[5],1
same,Result: Persisted,[5],0
same,Result: Eradicated,[6],5
same,Result: Persisted,[6],2
same,Result: Eradicated,[7],6
same,Result: Persisted,[7],0
same,Result: Eradicated,[8],1
same,Result: Persisted,[8],0
same,Result: Eradicated,[9],2
same,Result: Persisted,[9],0
same,Result: Eradicated,[10],1
same,Result: Persisted,[10],0
same,Result: Eradicated,[11],1
same,Result: Persisted,[11],0
same,Result: Eradicated,[12],1
same,Result: Persisted,[12],0
same,Result: Eradicated,[13],1
same,Result: Persisted,[13],0
same,Result: Eradicated,[14],4
same,Result: Persisted,[14],0
same,Result: Eradicated,[15],1
same,Result: Persisted,[15],0
same,Result: Eradicated,[16],1
same,Result: Persisted,[16],0
same,Result: Eradicated,[17],2
same,Result: Persisted,[17],0
same,Result: Eradicated,[18],1
same,Result: Persisted,[18],0
same,Result: Eradicated,[19],1
same,Result: Persisted,[19],0
same,Result: Eradicated,[20],0
same,Result: Persisted,[20],1
same,"Early drug efficacy evaluation, Clinical efficacy: Effective","[21]; Test Example 1, aspiration pneumonia, 13 subjects, i.v. 300 mg day 1 then 150 mg/day, 3 days after administration, number of subjects",12
same,Early drug efficacy evaluation: Efficacy rate,"[21]; Test Example 1, aspiration pneumonia, 3 days after administration",92%
same,"Early drug efficacy evaluation, Clinical efficacy: Ineffective",[21]; [25],1
same,"Early drug efficacy evaluation, Clinical efficacy: Undeterminable",[21]; [25],0
same,End of Treatment: Efficacy rate,"[21]; Test Example 1, aspiration pneumonia, EOT",100%
same,End of Treatment: Efficacy rate,"[21]; Test Example 1, aspiration pneumonia, EOT, listed as 7-[(3S,4S)-3-{(cyclopropylamino)methyl}-4-fluoropyrrolidin-1-yl]-6-fluoro-1-(2-f)",100%
same,"End of Treatment, Clinical efficacy: Ineffective",[21]; [26],0
same,"End of Treatment, Clinical efficacy: Undeterminable",[21]; [26],1
same,"End of Treatment, Clinical efficacy: Effective","[21]; Test Example 1, aspiration pneumonia, end of administration or discontinuation (EOT), number of subjects",12
same,therapeutic effect on aspiration pneumonia (in words),[21]; [27],high therapeutic effect
same,"Early drug efficacy evaluation, Clinical efficacy: Effective","[22]; Test Example 2, lung suppuration or lung abscess, 11 subjects, i.v. 300 mg day 1 then 150 mg/day, 3 days after administration, number of subjects",9
same,Early drug efficacy evaluation: Efficacy rate,"[22]; Test Example 2, lung suppuration or lung abscess, 3 days after administration",82%
same,"Early drug efficacy evaluation, Clinical efficacy: Ineffective",[22]; [28],2
same,"Early drug efficacy evaluation, Clinical efficacy: Undeterminable",[22]; [28],0
same,End of Treatment: Efficacy rate,"[22]; Test Example 2, lung suppuration or lung abscess, EOT",91%
same,End of Treatment: Efficacy rate,"[22]; Test Example 2, lung suppuration or lung abscess, EOT, listed as 7-[(3S,4S)-3-{(cyclopropylamino)methyl}-4-fluoropyrrolidin-1-yl]-6-fluoro-1-(2-f)",91%
same,"End of Treatment, Clinical efficacy: Effective",[22]; [29],10
same,"End of Treatment, Clinical efficacy: Ineffective",[22]; [29],1
same,"End of Treatment, Clinical efficacy: Undeterminable",[22]; [29],0
same,therapeutic effect on lung suppuration or lung abscess (in words),[22]; [27],high therapeutic effect
C[C@H]1COc2c(C3(N)CC3)c(F)cc3c(=O)c(C(=O)O)cn1c23 [pazufloxacin],antibacterial activity against anaerobic bacteria (in words),anaerobic bacteria,insufficient antibacterial activity
